# Patent US20230034978A1, “PROCESS FOR MEASURING EFFICACY OF PAIN THERAPY” (priority 2021, published 2023)
# Tests used:
# [1] = test system: participants with peripheral ongoing neuropathic pain (p-ONP) / peripheral neuropathy; experiment: Lidocaine patch cross-over trial (Example 2A): pain VAS and DLss C:Aδ ratio; format: in vivo, human; settings: lidocaine patch (5%) or placebo patch, 7 day treatment, p<0.01
# Experimental: 70 p-ONP participants to with mean pain VAS >40 mm who undergo baseline DLss, and pain measures. Response to VAS was compared to change in C:Aδ ratio following treatment with peripherally active lidocaine patch (5%), or placebo patch using a 7 day treatment cross-over design with 14 day washout between treatment arms.
# • Diode laser for selective stimulation (DLss) testing of C:Aδ ratio. Detection and pain thresholds for fiber-selective laser stimulation was performed with Lass-10M, as previously described (patents U.S. Pat. No. 7,402,167B2 and U.S. Pat. No. 8,029,553B2). The foot dorsum was shaved to limit light absorption and overheating. Skin temperature on the dorsal foot will be monitored and maintained at 32-33° C. using periodic heating pad warming. • Laser detection and pain thresholds (separately for Aδ and C fiber stimulation) were quantified using the “method of levels” on a 6×6 cm stimulus grid drawn on the foot dorsum, shifting location and using a series of ascending stimulations starting from sub-detection intensity, increasing by fixed increments with the highest stimulation determined by participant reporting a painful sensation with intensity between 30 and 40 on the 0-100 VAS. […] Blood perfusion was recorded by Speckle Imaging (PeriCam PSI System, Perimed, Sweden), following DLss stimulus using the C fiber protocol above. […]
# [2] = test system: CMi fibers (axon flare) in rhesus monkeys; experiment: DLss induced axon flare before and after intradermal lidocaine injection; format: in vivo; settings: intradermal 2.0% lidocaine injection; four rhesus monkeys; saline subdermal injection as control
# Source text: Lidocaine is a wide spectrum sodium channel blocker that is used clinically as a dermal patch or intradermal injection 97-99 for treatment of peripheral neuropathic pain 3, 99. […] C and Aδ fibers are differentially affected by lidocaine treatment 99-101, and suppression of repetitive CMi activation that mimics spontaneous activity is a potent consequence of lidocaine treatment 100. Flare response in rhesus monkeys, a primate animal model for human neuropathic pain generation and nociceptor dynamics was similar to that observed in healthy subjects (FIG. 2). A total of four monkeys were tested. DLss induced flare was evaluated before and after intradermal 2.0% lidocaine injection and saline subdermal injection was used as a control. […]
# • Diode laser for selective stimulation (DLss) testing of C:Aδ ratio. […] Skin temperature on the dorsal foot will be monitored and maintained at 32-33° C. using periodic heating pad warming. • Laser detection and pain thresholds (separately for Aδ and C fiber stimulation) were quantified using the “method of levels” on a 6×6 cm stimulus grid drawn on the foot dorsum, shifting location and using a series of ascending stimulations starting from sub-detection intensity, increasing by fixed increments with the highest stimulation determined by participant reporting a painful sensation with intensity between 30 and 40 on the 0-100 VAS. […]
# peripheral ONP = settings: lidocaine injection; reference 12; cited from earlier work
structure (smiles),measurement,setting,value
CCN(CC)CC(=O)Nc1c(C)cccc1C [lidocaine],"Change in C:Aδ ratio, lidocaine versus placebo treatment groups",[1],distinguish lidocaine from placebo treatment groups
same,axon flare area after injection compared to saline,[2],markedly reduced
same,block of peripheral ONP,peripheral ONP,completely block
